In patent US20080221548A1, “Eradication of Pigmentation and Scar Tissue” (priority 2005, published 2008):

Experiments:
[1] = Experiment 1: removal of tattoo pigmentation with different solutions while puncturing the skin; type: in vivo, pig
Description: A number of tattoos were applied to the skin of a pig. Each of the tattoos was a square having dimensions approximately 1 cm×1 cm filled with a solid blue-grey color. […] FIG. 3 is a reproduction of a photograph taken 14 days after four of these tattooed areas were treated according to the method of the invention using different types of solution. Square 1 was treated using distilled water and essentially no color reduction was observed. Square 2 was treated using a 2% aqueous solution of salicylic acid. […] Square 3 was treated using a solution containing 17% EDTA.

[2] = Experiment 2: treatment of tattooed squares by skin puncturing with salicylic acid rinse; type: in vivo, pig; conditions: 5% aqueous solution of salicylic acid, 10 cc/cm^2, three minutes puncturing, five squares; eighteen days later
Description: A number of tattoos were applied to the skin of a pig. Each of the tattoos was a square having dimensions approximately 1 cm×1 cm filled with a solid blue-grey color. Two months after the tattoos were applied each of the five squares labeled 1 to 5 on the photograph shown in FIG. 4A was treated according to the method of the invention. The treatment for each square consisted of repeatedly puncturing the skin with the device described hereinabove for three minutes. As the machine was operated, the needles and skin surface were cyclically rinsed with a 5% aqueous solution of salicylic acid. A total of 10 cc of solution was used for each square (i.e. 10 cc/cm^2). Following this initial treatment no further treatment was applied to these five locations.

[3] = Experiment 3: treatment of a pigmented area of skin surrounding a scab by skin puncturing with salicylic acid rinse; type: in vivo; conditions: 5% aqueous solution of salicylic acid, ~10 cc/cm^2, ten minutes puncturing; fourteen days after treatment
Description: In FIG. 5A is shown a photograph of an area of skin on which there is a reddish-purple pigmented area surrounding brown colored scab. The pigmented area surrounding the scab was treated using the method described above by repeatedly puncturing the skin for ten minutes. During the treatment 10 cc of a 5% aqueous solution of salicylic acid (˜10 cc/cm^2) was used to clean the needles and surface of the skin. A dry bandage was placed over the treated area for a few days to keep the site clean, but no medication was applied. After this the skin was left unattended. […] Although embodiments of the invention have been described by way of illustration, it will be understood that the invention may be carried out with many variations, modifications, and adaptations, without departing from its spirit or exceeding the scope of the claims.

For `O=C(O)CN(CCN(CC(=O)O)CC(=O)O)CC(=O)O` [EDTA], the scar after treatment ([1]; solution containing 17% EDTA, square 3) was “did not vanish” and the color reduction ([1]; solution containing 17% EDTA, tattoo square 3, 14 days after treatment) was 60%.
With `OO` [H2O2] the reduction in color ([1]; H2O2, tattoo square 4, 14 days after treatment) was 40-60%.
In the case of `O=C(O)c1ccccc1O` [salicylic acid], the color reduction ([1]; 2% aqueous solution of salicylic acid, 1 cm x 1 cm blue-grey tattoo square 2, 14 days after treatment plus a few days) is reported as “approximately 90%”, the scar after treatment ([1]; 2% aqueous solution of salicylic acid, square 2, a few days after the 14-day photograph) is reported as “vanished leaving no trace” and the “tattoo color after treatment” value [2] is reported as “all of the original blue-grey color has disappeared”. The “color of the pigmented area after treatment” value [3] was “changed to a color slightly greyer than the natural skin color” and the “scar tissue after treatment” value [3] was “gone”.
